In one experiment the target is human Nav1.7 (Homo sapiens (Human), UniProt Q15858). Put plainly: FLIPR or FLIPR TETRA sodium dye assay with KCl and test article pre-incubation. In kind it is cell-based. To be noted: read-out: Nav1.7 IC50 (μM) ± SEM.
Experiment [1] has as its system neuropathic hyperalgesia in rats. Briefly: Seltzer model (partial sciatic nerve ligation) of neuropathic pain, paw withdrawal threshold. In kind it is in vivo. The conditions noted are these: 30 mg/kg p.o., rat; for Time post-dose (h) with statistically significant increase in paw withdrawal threshold: Seltzer model, assessed 1, 3 and 5 h after administration. The procedure: Test Animals: Each experiment uses rats weighing between 200-260 g at the start of the experiment. The rats are group-housed and have free access to food and water at all times, except prior to oral administration of a test compound when food is removed for 16 hours before dosing. A control group acts as a comparison to rats treated with a compound of Formulae I-XXXIII. The control group is administered the carrier as used for the test compound. The volume of carrier administered to the control group is the same as the volume of carrier and test compound administered to the test group.
In the Seltzer model, the partial sciatic nerve ligation model of neuropathic pain was used to produce neuropathic hyperalgesia in rats (Seltzer et al., Pain 43:205-218 (1990)). Partial ligation of the left sciatic nerve was performed under inhalation anesthesia, e.g., isoflurane/O2. Following induction of anesthesia, the left thigh of the rat was shaved and the sciatic nerve exposed at high thigh level through a small incision and was carefully cleared of surrounding connective tissues at a site near the trocanther just distal to the point at which the posterior biceps semitendinosus nerve branches off of the common sciatic nerve. A 7-0 silk suture was inserted into the nerve, e.g., with a ⅜ curved, reversed-cutting mini-needle, and tightly ligated so that the dorsal ⅓ to ½ of the nerve thickness was held within the ligature. The wound was closed, e.g., with a single muscle suture (4-0 nylon (Vicryl)) and vetbond tissue glue. Following surgery, the wound area was dusted with antibiotic powder. Sham-treated rats undergo an identical surgical procedure except that the sciatic nerve is not manipulated. Following surgery, animals were weighed and placed on a warm pad until they recovered from anesthesia. Animals were then returned to their home cages until behavioral testing began. The animals were assessed for response to noxious mechanical stimuli by determining PWT, as described below, prior to surgery (baseline), then immediately prior to and 1, 3, and 5 hours after drug administration for rear paw of the animal. Percentage reversal of neuropathic hyperalgesia is defined as: […]
The following compounds were tested and produced a statistically significant increase in paw withdrawal threshold when administered at 30 mg/kg p.o. in the Seltzer model of neuropathic pain at the time points indicated:
Mechanical Hyperalgesia: Sensitivity to noxious mechanical stimuli can be measured in animals using the paw pressure test to assess mechanical hyperalgesia. In rats, hind paw withdrawal thresholds (“PWT”), measured in grams, in response to a noxious mechanical stimulus are determined using an analgesymeter (Model 7200, commercially available from Ugo Basile of Italy), as described in Stein (Biochemistry & Behavior 31: 451-455 (1988)). The rat's paw is placed on a small platform, and weight is applied in a graded manner up to a maximum of 250 grams. The endpoint is taken as the weight at which the paw is completely withdrawn. PWT is determined once for each rat at each time point. PWT can be measured only in the injured paw, or in both the injured and non-injured paw. In one non-limiting embodiment, mechanical hyperalgesia associated with nerve injury induced pain (neuropathic pain) can be assessed in rats. Rats are tested prior to surgery to determine a baseline, or normal, PWT. Rats are tested again 2 to 3 weeks post-surgery, prior to, and at different times after (e.g. 1, 3, 5 and 24 hr) drug administration.

Where [2] appears, read: recombinant human Nav1.7 in HEK293 cells, CoroNa Green sodium dye, veratridine + scorpion venom.

Read-outs that look alike come from different tables or passages of the source.

human Nav1.7, sequence (Q15858 other isoform, or with tags, fused parts or gaps): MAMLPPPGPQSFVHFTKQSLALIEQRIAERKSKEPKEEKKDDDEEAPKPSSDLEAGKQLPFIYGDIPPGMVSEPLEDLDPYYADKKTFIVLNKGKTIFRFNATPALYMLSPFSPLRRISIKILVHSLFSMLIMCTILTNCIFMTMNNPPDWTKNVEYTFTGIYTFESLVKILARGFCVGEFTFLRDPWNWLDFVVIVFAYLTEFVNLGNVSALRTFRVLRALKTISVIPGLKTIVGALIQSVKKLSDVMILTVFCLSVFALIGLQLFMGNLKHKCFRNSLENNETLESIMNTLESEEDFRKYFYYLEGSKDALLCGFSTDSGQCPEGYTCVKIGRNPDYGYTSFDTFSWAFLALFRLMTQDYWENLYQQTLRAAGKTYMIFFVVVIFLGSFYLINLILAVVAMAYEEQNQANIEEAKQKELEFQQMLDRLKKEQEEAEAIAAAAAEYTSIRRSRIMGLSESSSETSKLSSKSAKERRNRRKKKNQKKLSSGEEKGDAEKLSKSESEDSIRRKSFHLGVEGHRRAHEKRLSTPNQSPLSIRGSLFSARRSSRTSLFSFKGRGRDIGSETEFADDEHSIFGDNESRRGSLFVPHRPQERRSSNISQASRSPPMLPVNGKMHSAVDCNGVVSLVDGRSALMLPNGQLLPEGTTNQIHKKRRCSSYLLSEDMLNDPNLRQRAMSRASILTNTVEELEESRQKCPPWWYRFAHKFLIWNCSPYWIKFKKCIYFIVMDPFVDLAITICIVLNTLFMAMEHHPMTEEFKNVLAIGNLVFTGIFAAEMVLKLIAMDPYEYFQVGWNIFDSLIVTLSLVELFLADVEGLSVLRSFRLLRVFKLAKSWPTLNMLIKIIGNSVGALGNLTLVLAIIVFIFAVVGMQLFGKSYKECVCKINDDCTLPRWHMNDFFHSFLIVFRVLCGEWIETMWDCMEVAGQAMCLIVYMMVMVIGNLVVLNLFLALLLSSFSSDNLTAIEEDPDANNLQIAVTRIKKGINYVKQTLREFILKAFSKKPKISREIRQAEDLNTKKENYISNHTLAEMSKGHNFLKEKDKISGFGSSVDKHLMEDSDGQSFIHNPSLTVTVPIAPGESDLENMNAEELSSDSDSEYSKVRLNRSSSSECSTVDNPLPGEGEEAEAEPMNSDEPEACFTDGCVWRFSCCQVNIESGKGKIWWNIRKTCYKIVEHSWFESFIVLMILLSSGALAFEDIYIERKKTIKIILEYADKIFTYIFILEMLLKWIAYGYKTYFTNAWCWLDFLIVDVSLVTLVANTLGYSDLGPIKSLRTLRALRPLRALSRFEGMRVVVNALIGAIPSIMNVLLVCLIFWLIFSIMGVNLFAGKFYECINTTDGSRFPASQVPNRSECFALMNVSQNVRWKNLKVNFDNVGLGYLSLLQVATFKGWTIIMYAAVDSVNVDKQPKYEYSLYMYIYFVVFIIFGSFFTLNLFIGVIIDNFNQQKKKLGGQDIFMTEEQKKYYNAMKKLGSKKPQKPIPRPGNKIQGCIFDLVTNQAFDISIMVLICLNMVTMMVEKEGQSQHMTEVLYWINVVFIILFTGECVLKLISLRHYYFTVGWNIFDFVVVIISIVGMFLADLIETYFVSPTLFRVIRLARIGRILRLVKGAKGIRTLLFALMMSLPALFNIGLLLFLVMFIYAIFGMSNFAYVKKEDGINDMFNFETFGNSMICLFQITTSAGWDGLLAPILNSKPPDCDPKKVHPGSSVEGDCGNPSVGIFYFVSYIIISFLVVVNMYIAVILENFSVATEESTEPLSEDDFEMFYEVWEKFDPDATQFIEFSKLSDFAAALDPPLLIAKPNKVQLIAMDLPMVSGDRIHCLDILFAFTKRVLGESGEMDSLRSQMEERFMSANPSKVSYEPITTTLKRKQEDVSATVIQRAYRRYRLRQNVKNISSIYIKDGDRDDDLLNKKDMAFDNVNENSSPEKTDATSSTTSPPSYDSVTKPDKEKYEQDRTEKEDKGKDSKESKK

A word on the IC50: it is the concentration that inhibits the measured activity by half. Turning to `OC[C@H](O)c1cccc(-c2ccc(Oc3ccc(C(F)(F)F)cc3)cc2)n1` [compound 5, (R)-1-(6-(4-(4-(trifluoromethyl)phenoxy)phenyl)pyridin-2-yl)ethane-1,2-diol], at human Nav1.7, the IC50 stood at 0.16 ± 0.07 µM. In experiment [1], the “Time post-dose (h) with statistically significant increase in paw withdrawal threshold” value is recorded as 1 h.

On to `N#Cc1cc(Oc2ccc(-c3cccc([C@H](O)CO)n3)cc2)ccc1C(F)(F)F` [compound 18, (S)-5-(4-(6-(1,2-dihydroxyethyl)pyridin-2-yl)phenoxy)-2-(trifluoromethyl) benzonitrile], for which the IC50 on human Nav1.7 was found to be 2.8 ± 0.12 µM. The “Time post-dose (h) with statistically significant increase in paw withdrawal threshold” value in experiment [1] is 1 h. As to `NC(=O)c1cc([C@H](O)CO)cc(-c2ccc(Oc3ccc(C(F)(F)F)cc3)cc2)n1` [compound 30, (S)-4-(1,2-dihydroxyethyl)-6-(4-(4-(trifluoromethyl)phenoxy)phenyl) picolinamide], at human Nav1.7 (setting [2]), the IC50 was found to be 0.24 ± 0.07 µM. In addition, the “Time post-dose (h) with statistically significant increase in paw withdrawal threshold” value in experiment [1] was 1 h. Turning to `NC(=O)c1cc([C@@H](O)CO)cc(-c2ccc(Oc3ccc(F)cc3)cc2)n1` [compound 40, (R)-4-(1,2-dihydroxyethyl)-6-(4-(4-fluorophenoxy)phenyl)picolinamide], the “Time post-dose (h) with statistically significant increase in paw withdrawal threshold” value in experiment [1] is given as 1 h. As for `N#Cc1cc(C(F)(F)F)ccc1Oc1ccc(-c2cccc(CNCCN3CCNC3=O)n2)cc1` [compound 63, 2-(4-(6-(((2-(2-oxoimidazolidin-1-yl)ethyl)amino)methyl)pyridin-2-yl)phenoxy)-5-(trifluoromethyl) benzonitrile], the IC50 at human Nav1.7 (setting [2]) came out at 0.09 ± 0.03 µM. In addition, in experiment [1] (vehicle 10% Tween 80 in water), the “increase in paw withdrawal threshold in the Seltzer model” value is recorded as “did not produce a statistically significant increase”.

On to `O=C1NCCN1CCNCc1cccc(-c2ccc(Oc3ccc(C(F)(F)F)cn3)cc2)n1` [compound 68, 1-(2-(((6-(4-((5-(trifluoromethyl)pyridin-2-yl)oxy)phenyl)pyridin-2-yl)methyl)amino)ethyl) imidazolidin-2-one], for which the IC50 on human Nav1.7 (setting [2]) is 0.18 ± 0.09 µM. In addition, the “Time post-dose (h) with statistically significant increase in paw withdrawal threshold” value in experiment [1] came to 1 h. Take `NC(=O)c1cc(-c2ccc(-c3ccc(F)cc3)cc2)cc([C@H](O)CO)n1` [compound 160, 6-((S)-1,2-Dihydroxy-ethyl)-4-(4′-fluoro-biphenyl-4-yl)pyridine-2-carboxylic acid amide]: at human Nav1.7, the IC50 was determined as 0.49 ± 0.12 µM. On to `NC(=O)c1cc([C@@H](O)CO)cc(-c2ccc(Oc3ccc(OC(F)(F)F)cc3)cc2)n1` [compound 161, 4-((R)-1,2-Dihydroxy-ethyl)-6-[4-(4-trifluoromethoxy-phenoxy)phenyl]-pyridine-2-carboxylic acid amide], for which the IC50 on human Nav1.7 (setting [2]) worked out at 1.38 ± 0.2 µM.

In the case of `NC(=O)c1cc([C@H](O)CO)cc(-c2ccc(Oc3cccc(OC(F)(F)F)c3)cc2)n1` [compound 163, 4-((S)-1,2-Dihydroxy-ethyl)-6-[4-(3-trifluoromethoxy-phenoxy)phenyl]-pyridine-2-carboxylic acid amide], at human Nav1.7 (setting [2]), the half-maximal inhibitory concentration (IC50) came out at 0.63 ± 0.07 µM. For `NC(=O)c1cc([C@@H](O)CO)cc(-c2ccc(Oc3cccc(OC(F)(F)F)c3)cc2)n1` [compound 164, 4-((R)-1,2-Dihydroxy-ethyl)-6-[4-(3-trifluoromethoxy-phenoxy)phenyl]-pyridine-2-carboxylic acid amide], the IC50 at human Nav1.7 (setting [2]) is 0.49 ± 0.1 µM. Turning to `C[C@H](Nc1cc(C#N)nc(-c2ccc(Oc3ccc(F)cc3)cc2)c1)C(N)=O` [compound 165, (S)-2-((2-cyano-6-(4-(4-fluorophenoxy)phenyl)pyridin-4-yl)amino)propanamide], the concentration for half-maximal inhibition (IC50) at human Nav1.7 (setting [2]) is 1.97 ± 0.49 µM. On the same count and under the same terms, then `C[C@H](Nc1cc(C#N)cc(-c2ccc(Oc3ccc(F)cc3)cc2)n1)C(N)=O` [compound 166, (S)-2-((4-cyano-6-(4-(4-fluorophenoxy)phenyl)pyridin-2-yl)amino)propanamide], with 4.32 ± 1 µM. Turning to `C[C@H](Nc1cc(C(N)=O)nc(-c2ccc(Oc3ccc(F)cc3)cc2)c1)C(N)=O` [compound 167, (S)-4-((1-amino-1-oxopropan-2-yl)amino)-6-(4-(4-fluorophenoxy)phenyl) picolinamide], the IC50 at human Nav1.7 was 0.73 ± 0.1 µM.
